Results on 21 molecules are retold here after PubChem BioAssay (NCI).

“And” between values parts separate entries of the source, which are not always exact repeats. Equal values may be shown once.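 The compound was tested at five concentrations on cells cultured in 96-well plates, with a 48-hour exposure period. GI50 marks 50% less growth. TGI: concentration producing complete growth inhibition.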

Among the test systems are DMS 273 small cell lung; M19-MEL melanoma; LXFL 529 NSCLC; XF 498 CNS; HOP-18 NSCLC; DLD-1 colon; DMS 114 small cell lung; MDA-N; RXF-631 renal.
Common to all, as to assay: inhibition of tumour cell growth, NCI panel, 48 h

Turning to `O=C(O)C(CP(=O)(O)O)=C(Cl)Cl`, the TGI in the assay with DMS 273 small cell lung, in the assay with M19-MEL melanoma, with LXFL 529 NSCLC, in the assay on XF 498 CNS and in the assay on HOP-18 NSCLC was over 100 µM each time.
Consider `CCC[CH2][Sn]1([CH2]CCC)[O]C(=O)c2cc(I)cc(I)c2[O]1`, for which the GI50 in the assay with DMS 273 small cell lung is 1.28 µM; with DLD-1 colon, 1.15 µM; with DMS 114 small cell lung it was 0.303 µM; in the assay with M19-MEL melanoma, 1 µM; in the assay on LXFL 529 NSCLC, 0.247 µM; with HOP-18 NSCLC, 1.62 µM. Moreover, the TGI worked out at 2.82 µM in the assay on DMS 273 small cell lung; 2.42 µM in the assay with DLD-1 colon; 1.19 µM in the assay on DMS 114 small cell lung; 2.19 µM in the assay with M19-MEL melanoma; 1.33 µM in the assay on LXFL 529 NSCLC; 3.03 µM in the assay with HOP-18 NSCLC.
Regarding `COc1cc(O)c2c(O)c3c(c4c2c1[C@]1(C4)C(C)=CCCC1(C)C)[C@H](O)[C@@]1(O)CC(=O)C(C(N)=O)=C(O)[C@@]1(O)C3=O`, in the assay on MDA-N, the TGI was 1.72 µM.
In the case of `CC1CC2(C)ON=C(c3ccccc3)N2c2ccccc2S1` (stereo unspecified), the GI50 with MDA-N was 34.2 µM.
As to `CC1=NN(c2ccccc2)C(=O)C1N=Nc1ccc([As](=O)(O)O)c(O)c1` (stereo unspecified), the TGI in the assay on MDA-N was over 100 µM.
With `Cc1c(Cl)ccc2c1NC(=O)C2(O)C(C(=O)c1ccccc1)c1ccccc1` (stereo unspecified), the TGI was over 100 µM in the assay with DMS 273 small cell lung; over 100 µM in the assay on DLD-1 colon; 44.2 µM in the assay with DMS 114 small cell lung; over 100 µM with RXF-631 renal; 30.6 µM in the assay with M19-MEL melanoma; over 100 µM in the assay with LXFL 529 NSCLC. Besides, the TGI in the assay with XF 498 CNS was 96.9 µM; in the assay on HOP-18 NSCLC, over 100 µM.
For `CS(=O)(=O)NNS(=O)(=O)c1cccc([N+](=O)[O-])c1`, the TGI in the assay on DMS 273 small cell lung, in the assay on DLD-1 colon, with DMS 114 small cell lung, in the assay with RXF-631 renal, with M19-MEL melanoma and with LXFL 529 NSCLC was over 100 µM in each case. For the same molecule, in the assay with XF 498 CNS, the TGI is over 100 µM.
In the case of `COc1ccc(C(=O)C(c2ccc(OC)cc2)C2(O)C(=O)Nc3ccccc32)cc1` (stereo unspecified), the TGI in the assay on DMS 273 small cell lung, with DLD-1 colon, in the assay on RXF-631 renal, in the assay with M19-MEL melanoma, in the assay with LXFL 529 NSCLC and in the assay on XF 498 CNS was over 100 µM in each case.
On to `CCC(C)(C)C(=O)O[C@H]1C[C@@H](C)C=C2C=C[C@H](C)[C@H](CC[C@@H]3C[C@@H](O)CC(=O)O3)[C@H]21`, for which the TGI in the assay on DMS 273 small cell lung, in the assay on DLD-1 colon, in the assay on DMS 114 small cell lung, in the assay on RXF-631 renal, in the assay with M19-MEL melanoma and in the assay on LXFL 529 NSCLC was over 30 µM each time. Further, the TGI in the assay with XF 498 CNS and with HOP-18 NSCLC was over 30 µM each time.
Turning to `O=S1c2ccccc2N=C(c2ccc3ccccc3c2)CC1C1=CC=CCC1` (stereo unspecified), the TGI in the assay on DMS 273 small cell lung was 41 µM; with DLD-1 colon, 26 µM; in the assay with DMS 114 small cell lung, 33.3 µM; in the assay with RXF-631 renal it was 37 µM; in the assay with M19-MEL melanoma it was 31.2 µM; in the assay on LXFL 529 NSCLC, 29.7 µM. In addition, the TGI in the assay on XF 498 CNS was 31.6 µM; in the assay on HOP-18 NSCLC it was over 100 µM.
In the case of `COc1cc(/C=C2\[C@H]3c4c(c(OC)c(C)c(OC)c4OC)C[C@@H](C(=O)N2Cc2ccccc2)N3C(=O)OCC(C)C)c(OC)c(C)c1OC`, the TGI with DMS 273 small cell lung, with DLD-1 colon, in the assay on M19-MEL melanoma, in the assay with LXFL 529 NSCLC, in the assay with XF 498 CNS and with HOP-18 NSCLC was over 100 µM each time.
Regarding `COc1ccc2c(=O)c(C)c(-c3ccccc3)oc2c1CN(C)C`, the TGI in the assay with DMS 273 small cell lung, with DLD-1 colon, with DMS 114 small cell lung, in the assay with M19-MEL melanoma, in the assay on LXFL 529 NSCLC and in the assay with XF 498 CNS was over 100 µM each time. Moreover, the TGI in the assay on HOP-18 NSCLC is over 100 µM. Further, the GI50 in the assay with M19-MEL melanoma was > 100 µM and 42.4 µM.
For the molecule `C/C(=C\C(C)COCc1ccccc1)[C@H](COCc1ccccc1)OCc1ccccc1` (stereo partly specified), the TGI in the assay on DMS 273 small cell lung, in the assay with DMS 114 small cell lung, in the assay on RXF-631 renal, in the assay on M19-MEL melanoma, in the assay with LXFL 529 NSCLC and in the assay with XF 498 CNS was over 100 µM throughout.
`CCOC12OC3=C(CC1CC1=C(CCC1=O)O2)C(=O)CC3` (stereo unspecified): the TGI with DMS 273 small cell lung, in the assay on DLD-1 colon, in the assay with DMS 114 small cell lung, in the assay with RXF-631 renal, with M19-MEL melanoma and in the assay on LXFL 529 NSCLC was over 100 µM each time. Further, in the assay with HOP-18 NSCLC, the TGI is over 100 µM.
With `Nc1nc(N)c(N=O)c(Nc2ccc(O)cc2)n1`, the TGI in the assay with MDA-N is over 100 µM.
Consider `CCCN(CCCCC(NC(C)=O)C(=O)NCc1ccccc1)C(=O)N(C)N=O` (stereo unspecified), for which the TGI in the assay on DMS 273 small cell lung, in the assay on DLD-1 colon, in the assay on DMS 114 small cell lung, in the assay on M19-MEL melanoma, in the assay with LXFL 529 NSCLC and in the assay with XF 498 CNS was over 100 µM each time.
In the case of `CCOC(=O)/C(O)=C(/c1n[nH]c(=O)c2ccccc12)[N+](=O)[O-]`, the TGI in the assay on DMS 273 small cell lung, in the assay with DLD-1 colon, in the assay with DMS 114 small cell lung, with M19-MEL melanoma, with LXFL 529 NSCLC and with HOP-18 NSCLC was over 100 µM each time.
With `Cn1c2ccccc2c(=S)c2ccccc21`, the TGI in the assay with MDA-N was over 100 µM.
As to `O=c1/c(=C/c2cccc([N+](=O)[O-])c2)sc2nc3ccccc3n12`, the TGI in the assay with DMS 273 small cell lung, with DLD-1 colon, with DMS 114 small cell lung, in the assay on M19-MEL melanoma, in the assay with LXFL 529 NSCLC and in the assay on XF 498 CNS was over 100 µM throughout.
With `COc1cccc(C2c3cc4c(cc3OC(C)(O)C2C)OCO4)c1O` (stereo unspecified), the TGI in the assay on MDA-N was 4.69 µM.
Turning to `COc1cc(/C=C2/C(=O)N(C(=O)OC(C)C)C(Cc3cc(OC)c(OC)c(C)c3OC)C(=O)N2Cc2ccccc2)c(OC)c(C)c1OC` (stereo unspecified), the TGI in the assay with DMS 273 small cell lung, with DLD-1 colon, in the assay on DMS 114 small cell lung, in the assay on M19-MEL melanoma, in the assay with LXFL 529 NSCLC and with HOP-18 NSCLC was over 100 µM in each case.
